Measurements taken from ChEMBL document CHEMBL3044572, “Discovery of 2-(4-cyano-3-trifluoromethylphenyl amino)-4-(4-quinazolinyloxy)-6-piperazinyl(piperidinyl)-s-triazines as potential antibacterial agents” (2012).
≈ marks a conversion by molar mass, not a printed value. Calls of active or inactive are those of the source. The calls are words filed in the database; no cut-off is given here.

Experiments:
Candida albicans [1] = assay: Antimicrobial activity against Candida albicans MTCC 183 by agar streak dilution method; type: functional
Aspergillus clavatus [2] = assay: Antimicrobial activity against Aspergillus clavatus MTCC 1323 by paper disk diffusion method; type: functional
Aspergillus niger [3] = assay: Antimicrobial activity against Aspergillus niger MTCC 282 by paper-disk diffusion method; type: functional
Shigella flexneri [4] = assay: Antimicrobial activity against Shigella flexneri MTCC 1457 at 100 ug/ml by paper-disk diffusion method; type: functional, organism-based
Klebsiella pneumoniae [5] = assay: Antimicrobial activity against Klebsiella pneumoniae MTCC 109 at 100 ug/ml by paper disk diffusion method; type: functional, organism-based
Escherichia coli [6] = assay: Antimicrobial activity against Escherichia coli MTCC 739 at 100 ug/ml by paper-disk diffusion method; type: functional, organism-based
Proteus vulgaris [7] = assay: Antimicrobial activity against Proteus vulgaris MTCC 1771 by paper disk diffusion method; type: functional
Salmonella typhi [8] = assay: Antimicrobial activity against Salmonella enterica subsp. enterica serovar Typhi MTCC 733 by paper disk diffusion method; type: functional
Pseudomonas aeruginosa [9] = assay: Antimicrobial activity against Pseudomonas aeruginosa MTCC 741 by paper disk diffusion method; type: functional
Bacillus cereus [10] = assay: Antimicrobial activity against Bacillus cereus MTCC 619 by paper disk diffusion method; type: functional
Staphylococcus aureus [11] = assay: Antimicrobial activity against Staphylococcus aureus MTCC 96 by paper-disk diffusion method; type: functional
Aspergillus clavatus [12] = assay: Antimicrobial activity against Aspergillus clavatus MTCC 1323 by agar streak dilution method; type: functional
Aspergillus niger [13] = assay: Antimicrobial activity against Aspergillus niger MTCC 282 by agar streak dilution method; type: functional
Proteus vulgaris [14] = assay: Antimicrobial activity against Proteus vulgaris MTCC 1771 by agar streak dilution method; type: functional
Salmonella typhi [15] = assay: Antimicrobial activity against Salmonella enterica subsp. enterica serovar Typhi MTCC 733 by agar streak dilution method; type: functional
Pseudomonas aeruginosa [16] = assay: Antimicrobial activity against Pseudomonas aeruginosa MTCC 741 by agar streak dilution method; type: functional
Staphylococcus aureus [17] = assay: Antimicrobial activity against Staphylococcus aureus MTCC 96 by agar streak dilution method; type: functional
Bacillus cereus [18] = assay: Antimicrobial activity against Bacillus cereus MTCC 619 by agar streak dilution method; type: functional
[19] = tested on: Mycobacterium tuberculosis; assay: Antimicrobial activity against Mycobacterium tuberculosis H37Rv at 100 ug/ml by BACTEC MGIT method; type: functional, organism-based
[20] = tested on: Mycobacterium tuberculosis; assay: Antimicrobial activity against Mycobacterium tuberculosis H37Rv by Lowenstein and Jensen method; type: functional; settings: for MIC: Mycobacterium tuberculosis, H37Rv
[21] = tested on: Mycobacterium tuberculosis; assay: Antimicrobial activity against Mycobacterium tuberculosis H37Rv by BACTEC MGIT method; type: functional; settings: Mycobacterium tuberculosis, H37Rv
Aspergillus fumigatus [22] = assay: Antimicrobial activity against Aspergillus fumigatus MTCC 343 at 100 ug/ml by paper-disk diffusion method; type: functional, organism-based
Candida albicans [23] = assay: Antimicrobial activity against Candida albicans MTCC 183 by paper-disk diffusion method; type: functional
Proteus vulgaris [24] = assay: Antimicrobial activity against Proteus vulgaris MTCC 1771 at 100 ug/ml by paper disk diffusion method; type: functional, organism-based
Pseudomonas aeruginosa [25] = assay: Antimicrobial activity against Pseudomonas aeruginosa MTCC 741 at 100 ug/ml by paper disk diffusion method; type: functional, organism-based
Bacillus cereus [26] = assay: Antimicrobial activity against Bacillus cereus MTCC 619 at 100 ug/ml by paper disk diffusion method; type: functional, organism-based
Klebsiella pneumoniae [27] = assay: Antimicrobial activity against Klebsiella pneumoniae MTCC 109 by paper disk diffusion method; type: functional
Escherichia coli [28] = assay: Antimicrobial activity against Escherichia coli MTCC 739 by paper disk diffusion method; type: functional
Klebsiella pneumoniae [29] = assay: Antimicrobial activity against Klebsiella pneumoniae MTCC 109 by agar streak dilution method; type: functional
Escherichia coli [30] = assay: Antimicrobial activity against Escherichia coli MTCC 739 by agar streak dilution method; type: functional
Aspergillus clavatus [31] = assay: Antimicrobial activity against Aspergillus clavatus MTCC 1323 at 100 ug/ml by paper disk diffusion method; type: functional, organism-based
Aspergillus niger [32] = assay: Antimicrobial activity against Aspergillus niger MTCC 282 at 100 ug/ml by paper-disk diffusion method; type: functional, organism-based
Aspergillus fumigatus [33] = assay: Antimicrobial activity against Aspergillus fumigatus MTCC 343 by paper-disk diffusion method; type: functional
Aspergillus fumigatus [34] = assay: Antimicrobial activity against Aspergillus fumigatus MTCC 343 by agar streak dilution method; type: functional
Salmonella typhi [35] = assay: Antimicrobial activity against Salmonella enterica subsp. enterica serovar Typhi MTCC 733 at 100 ug/ml by paper disk diffusion method; type: functional, organism-based
Staphylococcus aureus [36] = assay: Antimicrobial activity against Staphylococcus aureus MTCC 96 at 100 ug/ml by paper-disk diffusion method; type: functional, organism-based
Shigella flexneri [37] = assay: Antimicrobial activity against Shigella flexneri MTCC 1457 by paper disk diffusion method; type: functional
Shigella flexneri [38] = assay: Antimicrobial activity against Shigella flexneri MTCC 1457 by agar streak dilution method; type: functional
Candida albicans [39] = assay: Antimicrobial activity against Candida albicans MTCC 183 at 100 ug/ml by paper-disk diffusion method; type: functional, organism-based

SMILES | MIC (Candida albicans [1]) [µg/mL] | inhibition zone (IZ) (Aspergillus niger [3]) [mm] | inhibition zone (IZ) (Shigella flexneri [4]) | inhibition zone (IZ) (Klebsiella pneumoniae [5]) | inhibition zone (IZ) (Escherichia coli [6]) | inhibition zone (IZ) (Proteus vulgaris [7]) [mm] | inhibition zone (IZ) (Salmonella typhi [8]) [mm] | inhibition zone (IZ) (Pseudomonas aeruginosa [9]) [mm] | inhibition zone (IZ) (Staphylococcus aureus [11]) [mm] | MIC (Aspergillus niger [13]) [µg/mL] | MIC (Proteus vulgaris [14]) [µg/mL] | MIC (Salmonella typhi [15]) [µg/mL] | MIC (Staphylococcus aureus [17]) [µg/mL] | inhibition [19] | inhibition (percent inhibition) [20] [%] | MIC [20] [µg/mL] | MIC [21] [µg/mL] | inhibition zone (IZ) (Aspergillus fumigatus [22]) | inhibition zone (IZ) (Candida albicans [23]) [mm] | inhibition zone (IZ) (Aspergillus clavatus [31]) | further results
N#Cc1ccc(Nc2nc(Oc3ncnc4ccccc34)nc(N3CCN(c4ccccn4)CC3)n2)cc1C(F)(F)F | 100 (≈ 175 µM) | 21 | inactive | inactive | inactive | 21 | 21 | 21 | 22 | 100 (≈ 175 µM) | 100 (≈ 175 µM) | 100 (≈ 175 µM) | 50 (≈ 87.6 µM) | inactive | 96 | 200 (≈ 351 µM) | > 6.25 | inactive | 21 | – | inhibition zone (IZ) (Aspergillus clavatus [2]): 20 mm; inhibition zone (IZ) (Bacillus cereus [10]): 24 mm; MIC (Aspergillus clavatus [12]): 100 µg/mL (≈ 175 µM); MIC (Pseudomonas aeruginosa [16]): 100 µg/mL (≈ 175 µM); MIC (Bacillus cereus [18]): 25 µg/mL (≈ 43.8 µM)
CCN1CCN(c2nc(Nc3ccc(C#N)c(C(F)(F)F)c3)nc(Oc3ncnc4ccccc34)n2)CC1 | 100 (≈ 192 µM) | – | inactive | – | – | – | 23 | – | 23 | – | – | 100 (≈ 192 µM) | 100 (≈ 192 µM) | inactive | 95 | 500 (≈ 959 µM) | > 6.25 | inactive | 21 | inactive | inhibition zone (IZ) (Proteus vulgaris [24]): inactive; inhibition zone (IZ) (Pseudomonas aeruginosa [25]): inactive; inhibition zone (IZ) (Bacillus cereus [26]): inactive; inhibition zone (IZ) (Klebsiella pneumoniae [27]): 19 mm; inhibition zone (IZ) (Escherichia coli [28]): 21 mm; MIC (Klebsiella pneumoniae [29]): 100 µg/mL (≈ 192 µM); MIC (Escherichia coli [30]): 100 µg/mL (≈ 192 µM); inhibition zone (IZ) (Aspergillus niger [32]): inactive
N#Cc1ccc(Nc2nc(Oc3ncnc4ccccc34)nc(N3CCN(C(c4ccccc4)c4ccccc4)CC3)n2)cc1C(F)(F)F | 100 (≈ 152 µM) | 21 | inactive | inactive | – | 21 | 23 | 22 | 25 | 100 (≈ 152 µM) | 100 (≈ 152 µM) | 100 (≈ 152 µM) | 25 (≈ 37.9 µM) | inactive | 97 | 62.5 (≈ 94.7 µM) | > 6.25 | – | 21 | – | inhibition zone (IZ) (Aspergillus clavatus [2]): 21 mm; inhibition zone (IZ) (Aspergillus fumigatus [33]): 23 mm; inhibition zone (IZ) (Bacillus cereus [10]): 24 mm; inhibition zone (IZ) (Escherichia coli [28]): 23 mm; MIC (Aspergillus clavatus [12]): 100 µg/mL (≈ 152 µM); MIC (Aspergillus fumigatus [34]): 100 µg/mL (≈ 152 µM); MIC (Pseudomonas aeruginosa [16]): 50 µg/mL (≈ 75.8 µM); MIC (Bacillus cereus [18]): 100 µg/mL (≈ 152 µM); MIC (Escherichia coli [30]): 100 µg/mL (≈ 152 µM)
CN1CCN(c2nc(Nc3ccc(C#N)c(C(F)(F)F)c3)nc(Oc3ncnc4ccccc34)n2)CC1 | – | – | – | inactive | inactive | – | – | – | – | – | – | – | – | inactive | 95 | 250 (≈ 493 µM) | > 6.25 | inactive | – | inactive | inhibition zone (IZ) (Proteus vulgaris [24]): inactive; inhibition zone (IZ) (Salmonella typhi [35]): inactive; inhibition zone (IZ) (Pseudomonas aeruginosa [25]): inactive; inhibition zone (IZ) (Bacillus cereus [26]): inactive; inhibition zone (IZ) (Staphylococcus aureus [36]): inactive; inhibition zone (IZ) (Shigella flexneri [37]): 22 mm; MIC (Shigella flexneri [38]): 100 µg/mL (≈ 197 µM); inhibition zone (IZ) (Candida albicans [39]): inactive; inhibition zone (IZ) (Aspergillus niger [32]): inactive
N#Cc1ccc(Nc2nc(Oc3ncnc4ccccc34)nc(N3CCN(c4ccccc4)CC3)n2)cc1C(F)(F)F | 100 (≈ 176 µM) | – | inactive | inactive | inactive | 23 | – | – | – | – | 50 (≈ 87.8 µM) | – | – | inactive | 94 | 1000 (≈ 1760 µM) | > 6.25 | inactive | 19 | inactive | inhibition zone (IZ) (Salmonella typhi [35]): inactive; inhibition zone (IZ) (Pseudomonas aeruginosa [25]): inactive; inhibition zone (IZ) (Bacillus cereus [26]): inactive; inhibition zone (IZ) (Staphylococcus aureus [36]): inactive; inhibition zone (IZ) (Aspergillus niger [32]): inactive
N#Cc1ccc(Nc2nc(Oc3ncnc4ccccc34)nc(N3CCOCC3)n2)cc1C(F)(F)F | 100 (≈ 202 µM) | 22 | inactive | inactive | – | – | 22 | 22 | 22 | 100 (≈ 202 µM) | – | 100 (≈ 202 µM) | 100 (≈ 202 µM) | inactive | 98 | 100 (≈ 202 µM) | > 6.25 | – | 20 | inactive | inhibition zone (IZ) (Aspergillus fumigatus [33]): 21 mm; inhibition zone (IZ) (Proteus vulgaris [24]): inactive; inhibition zone (IZ) (Bacillus cereus [10]): 23 mm; inhibition zone (IZ) (Escherichia coli [28]): 21 mm; MIC (Aspergillus fumigatus [34]): 100 µg/mL (≈ 202 µM); MIC (Pseudomonas aeruginosa [16]): 100 µg/mL (≈ 202 µM); MIC (Bacillus cereus [18]): 100 µg/mL (≈ 202 µM); MIC (Escherichia coli [30]): 100 µg/mL (≈ 202 µM)
N#Cc1ccc(Nc2nc(Oc3ncnc4ccccc34)nc(N3CCCCC3)n2)cc1C(F)(F)F | 100 (≈ 203 µM) | 21 | inactive | inactive | inactive | 20 | 20 | 22 | 22 | 100 (≈ 203 µM) | 100 (≈ 203 µM) | 100 (≈ 203 µM) | 100 (≈ 203 µM) | inactive | 94 | 500 (≈ 1020 µM) | > 6.25 | inactive | 20 | inactive | inhibition zone (IZ) (Bacillus cereus [26]): inactive; MIC (Pseudomonas aeruginosa [16]): 100 µg/mL (≈ 203 µM)
